Reference: patent US6683092B1, “[3-(C5-14ALKYL-2-OXO-1,2,3,4-TETRAHYDRO-QUINOLIN-6-YL)-3-OXO-PROPENYL]-PHENYL AND [3-(C5-14ALKYL-2-OXO-1,2,3,4- TETRAHYDRO-QUINOLIN-6-YL)-3-OXO-PROPENYL]-HETEROARYL DERIVATIVES HAVING ANTI-TUMOR ACTIVITY” (Allergan, Inc., priority 2003, dated 2004)
“Also recorded” adds a separate entry of the source.

How the values were obtained:
[1] = test system: prostate cancer cell line LNCaP; test: Colony (clonogenic) assay, serum-free, LNCaP; type: cell-based; conditions: 14 days, concentration giving 50% inhibition of cell growth; for EC50: Homo sapiens, LNCaP, 336 h
Description: (§1) Specifically, the following assay procedure was employed to test certain exemplary compounds of the invention in the breast cancer cell line known in the art as MCF-7 and in the prostrate cancer cell line known in the art as LNCaP.
(§2) Set 4 mL cultures in 60 mm petri dishes
(medium for LNCaP—[…] with ITS & linoleic acid)
(§3) Seeding density: LNCaP serum-free 1200 cells/dish; MCF-7 serum-free 1400 cells/dish
(§4) Add compound immediately after setting cultures and then change the media and re-feed with compound at day 2 (or day 3 for assays set on Fridays).
(§5) Incubated for 14 days (serum free lines)
(§6) 2. fix with 10% formal saline for ˜30 mins
(§7) 3. remove formal saline and wash with 2-3 mLs PBS
(§8) 4. stain with 1% methylene blue in PBS, leave this on for ˜1 hr
(§9) 5. remove stain and wash off in tap water
(§10) 6. dry overnight and count the colonies
(§11) The results obtained in these assays are shown in Table 1, expressed in EC50 numbers, where EC50 is the concentration (expressed as nanomolar) of the compound that results in 50% inhibition of the growth of the cells.

[2] = test system: breast cancer cell line MCF-7; test: Colony (clonogenic) assay, serum-free, MCF-7; type: cell-based; conditions: 14 days, concentration giving 50% inhibition of cell growth
Description: as §1, §2
(medium for MCF-7—DMEN with L-glutamine & without glucose)
as §3, §4, §5, §6, §7, §8, §9, §10, §11

EC50 [1] [nM] | EC50 ([2]; Homo sapiens, MCF7, 336 h) [nM] | EC50 for Breast Cancer Cell Line (MCF-7) [2] | Compound | EC50 for Prostate Cancer Cell Line (LNCaP) [1] | EC50 [2] [nM]
155 | 9 |  | CCCCCCCN1C(=O)CC(C)(C)c2cc(C(=O)C=Cc3ccc(C(=O)O)cc3)ccc21 [Compound 8b, 4-[3-(1-Heptyl-4,4-dimethyl-2-oxo-1,2,3,4-tetrahydro-quinolin-6-yl)-3-oxo-propenyl]-benzoic acid] |  | 
52 | 30 |  | CCCCCCCCN1C(=O)CC(C)(C)c2cc(C(=O)C=Cc3ccc(C(=O)O)cc3)ccc21 [Compound 8c, 4-[3-(1-Octyl-4,4-dimethyl-2-oxo-1,2,3,4-tetrahydro-quinolin-6-yl)-3-oxo-propenyl]-benzoic acid] |  | 

The next lines start with the compound.

Compound | EC50 [1] [nM] | EC50 ([2]; Homo sapiens, MCF7, 336 h) [nM] | EC50 for Breast Cancer Cell Line (MCF-7) [2] | EC50 for Prostate Cancer Cell Line (LNCaP) [1] | EC50 [2] [nM]
4-[3-(1-Phenylethyl-4,4-dimethyl-2-oxo-1,2,3,4-tetrahydro-quinolin-6-yl)-3-oxo-propenyl]-benzoic acid [Compound 8e] |  |  |  | Not Active | 9
CCCCCCN1C(=O)CC(C)(C)c2cc(C(=O)C=Cc3ccc(C(=O)O)cc3)ccc21 [Compound 8a, 4-[3-(1-Hexyl-4,4-dimethyl-2-oxo-1,2,3,4-tetrahydro-quinolin-6-yl)-3-oxo-propenyl]-benzoic acid] | 90 | 9 |  |  | 
CCCCCCCCCN1C(=O)CC(C)(C)c2cc(C(=O)C=Cc3ccc(C(=O)O)cc3)ccc21 [Compound 8d, 4-[3-(1-Nonyl-4,4-dimethyl-2-oxo-1,2,3,4-tetrahydro-quinolin-6-yl)-3-oxo-propenyl]-benzoic acid] | 155 | 3 |  |  | 
CN1C(=O)CC(C)(C)c2cc(C(=O)C=Cc3ccc(C(=O)O)cc3)ccc21 [Compound 8f, 4-[3-(1-Methyl-4,4-dimethyl-2-oxo-1,2,3,4-tetrahydro-quinolin-6-yl)-3-oxo-propenyl]-benzoic acid] |  |  | inactive; also recorded: Not Active | inactive; also recorded: Not Active | 
